Among the data in patent EP4745138A1, “THIO-GLUTARIMIDO ISOINDOLINONE DERIVATIVE, BIFUNCTIONAL PROTEIN DEGRADER CONTAINING SAME, AND USES THEREOF” (Gluetacs Therapeutics (Shanghai) Co., Ltd., priority 2023, dated 2025) are inhibition values, retold here.

The subject of one experiment is MV-4-11. The experiment is described as follows: Tumor cell proliferation inhibition (CellTiter-Meiluncell Luminescent Cell Viability Assay). In kind it is cell-based. The conditions noted are these: Homo sapiens, 96 hours; for inhibition at 0.01 µM: MV4-11, 10 nM, read-out: Inhibition Rate at 10 nM (%); for inhibition at 0.5 µM: MV4-11, 500 nM, read-out: Inhibition Rate at 500 nM (%). How it is done: The tumor cells used herein were cultured in a cell culture medium listed in table 3 at 37°C in an incubator with 5% CO2. Prior to experimentation, all cell lines used were correctly identified by STR profiling, and tested negative for mycoplasma contamination using a mycoplasma detection kit through routine screenings. Table 3. Tumor cells and cell culture medium used in the present disclosure
The IC50 values of the compounds of the present disclosure (including the compounds in Table 1, Table 2, and Examples) were determined using the CellTiter-Meiluncell Luminescent Cell Viability Assay Kit from Dalian Meilun Biotech Co., Ltd. The detailed procedure is as follows: Tumor cells were seeded in 96-well cell culture plates at the densities specified in Table 4. On the following day, the test compounds of the present disclosure were subjected to serial dilution. […] Subsequently, 0.5 µL of the test compound dilution was transferred into the 96-well plate containing the cells, with each well containing 100 µL of cell culture medium. […] Into the 96-well plate, the diluted test compounds and corresponding detection reagents were added, resulting in final test compound concentrations of 500 nM and 10 nM, respectively. The experimental procedure is described below using the diluted 2 µM test compound as an example.
0.5 µL of the aforementioned diluted compound of the present disclosure (including the compounds in Table 1, Table 2, and Examples) was added to the seeded cells in 100 µL of medium, yielding a final test compound concentration of 10 nM. After the cells were treated with the compounds of the present disclosure for a specified period, the cell viability assay reagent was added to the culture medium according to the kit's instructions to determine cell viability. […] All controls were treated using the same procedure as the compounds of the present disclosure. […] Seeding protocol and treatment time for tumor cells

Experiment [1] has as its target T1, human Cereblon WT GST-tagged protein (Homo sapiens, UniProt Q96SW2).
T1 construct: purchased CISBIO 64BDCRBNPEH
The experiment is described as follows: CRBN-binding affinity, HTRF (CEREBLON BINDING kit). The following applies: for inhibition at 0.5 µM: read-out: Inhibition Rate at 0.5 µM (%); for inhibition at 2 µM: read-out: Inhibition Rate at 2 µM (%). The source says: The CEREBLON BINDING kits (specification: 10,000 tests; product number: Catalog # 64BDCRBNPEH; CISBIO company) was used to determine the CRBN binding ability of the compounds to be tested through a HTRF method (homogeneous time-resolved fluorescence). The specific methods are as follows: • 1. […] Specifically, diluent #9 (1X) solution was used as the diluent, and multiple concentration gradients were set. […] Into the 96-well plate, the diluted test compounds and corresponding detection reagents were added, resulting in final test compound concentrations of 2 µM and 0.5 µM, respectively. […] Then, 2.5 µL of human Cereblon WT GST-tagged protein solution was added to each well. Finally, 5 µL of the thoroughly mixed Thalidomide-Re reagent and GST Eu antibody working solution were added to each of the aforementioned wells. […] The blank control wells were sequentially added with 2.5 µL of diluent #9 (1X) solution, 2.5 µL of PROTAC binding buffer, and 5 µL of thoroughly mixed Thalidomide-Re reagent and GST Eu antibody working solution. • 4.
(In general: TR-FRET usually uses a lanthanide donor and a delayed reading to cut background.)

Read-outs that look alike come from different tables or passages of the source.

T1 sequence (Q96SW2 whole entry): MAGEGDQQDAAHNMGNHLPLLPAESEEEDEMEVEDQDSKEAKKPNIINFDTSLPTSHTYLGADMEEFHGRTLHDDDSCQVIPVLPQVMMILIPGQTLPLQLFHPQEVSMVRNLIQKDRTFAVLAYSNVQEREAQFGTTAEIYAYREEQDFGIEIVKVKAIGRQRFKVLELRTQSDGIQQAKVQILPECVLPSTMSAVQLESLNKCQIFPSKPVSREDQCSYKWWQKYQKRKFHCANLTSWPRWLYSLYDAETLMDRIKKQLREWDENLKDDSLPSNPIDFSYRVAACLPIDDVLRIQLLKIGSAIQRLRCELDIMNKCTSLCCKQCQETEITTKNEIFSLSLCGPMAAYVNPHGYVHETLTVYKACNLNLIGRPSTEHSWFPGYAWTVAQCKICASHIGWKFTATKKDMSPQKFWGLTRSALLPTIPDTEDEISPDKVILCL

For orientation: inhibition means the share of the control response that was lost under treatment. With `O=C1CCC(N2Cc3cc(CN4CCN(c5ccc6c(c5)nc(NC(=O)c5cccc(C(F)(F)F)c5)n6[C@H]5CC[C@@H](CO)CC5)CC4)ccc3C2=S)C(=O)N1` (relative stereo) [GT-05293, N-(5-(4-((2-(2,6-dioxopiperidin-3-yl)-1-thioxoisoindolin-5-yl)methyl)piperazin-1-yl)-1-((1s,4s)-4-(hydroxymethyl)cyclohexyl)-1H-benzo[d]imidazol-2-yl)-3-(trifluoromethyl)benzamide], in the experiment with MV-4-11 (Table I-6, IRAK4 inhibitors), the inhibition at 0.01 µM lay within 10 to 20% and the inhibition at 0.5 µM lay in the range of 60 to 70%. Besides, in experiment [1], the inhibition at 0.5 µM was 40 to 53% and the inhibition at 2 µM was 60 to 80%.

As for `O=C1CCC(N2Cc3c(CN4CCC(n5cc(NC(=O)c6cnn7ccc(N8CCOCC8)nc67)c(C(F)F)n5)CC4)cccc3C2=S)C(=O)N1` (stereo not drawn) [GT-05287, N-(3-(difluoromethyl)-1-(1-((2-(2,6-dioxopiperidin-3-yl)-1-thioxoisoindolin-4-yl)methyl)piperidin-4-yl)-1H-pyrazol-4-yl)-5-morpholinopyrazolo[1,5-a]pyrimidine-3-carboxamide], in the experiment with MV-4-11 (Table I-6, IRAK4 inhibitors), the inhibition at 0.01 µM lay within 10 to 20% and the inhibition at 0.5 µM lay within 70 to 80%. Moreover, in experiment [1], the inhibition at 0.5 µM lay in the range of 53 to 60% and the inhibition at 2 µM lay in the range of 80 to 100%.

As for `Cc1cc(S(=O)(=O)N2CCN(Cc3cccc4c3CN(C3CCC(=O)NC3=O)C4=S)CC2)ccc1Nc1ncc(Br)c(Nc2cccc(F)c2C(N)=O)n1` (stereo not drawn) [GT-08793, 2-((5-bromo-2-((4-((4-((2-(2,6-dioxopiperidin-3-yl)-1-thioxoisoindolin-4-yl)methyl)piperazin-1-yl)sulfonyl)-2-methylphenyl)amino)pyrimidin-4-yl)amino)-6-fluorobenzamide], in the experiment with MV-4-11 (Table I-13, CDK2 inhibitors), the inhibition at 0.01 µM was 30 to 40% and the inhibition at 0.5 µM lay in the range of 60 to 70%.

As to `CN(c1nccnc1CNc1nc(Nc2ccc(N3CCN(Cc4ccc5c(c4)C(=S)N(C4CCC(=O)NC4=O)C5)CC3)cc2)ncc1C(F)(F)F)S(C)(=O)=O` (stereo not drawn) [GT-09437, N-(3-(((2-((4-(4-((2-(2,6-dioxopiperidin-3-yl)-3-thioxoisoindolin-5-yl)methyl)piperazin-1-yl)phenyl)amino)-5-(trifluoromethyl)pyrimidin-4-yl)amino)methyl)pyrazin-2-yl)-N-methylmethanesulfonamide], in experiment [1], the inhibition at 0.5 µM was 40 to 53% and the inhibition at 2 µM fell in the range of 60 to 80%.

On to `CN(c1cccc(CNc2nc(Nc3ccc(N4CCN(Cc5ccc6c(c5)C(=S)N(C5CCC(=O)NC5=O)C6)CC4)cc3)ncc2C(F)(F)F)c1)S(C)(=O)=O` (stereo not drawn) [GT-09438, N-(3-(((2-((4-(4-((2-(2,6-dioxopiperidin-3-yl)-3-thioxoisoindolin-5-yl)methyl)piperazin-1-yl)phenyl)amino)-5-(trifluoromethyl)pyrimidin-4-yl)amino)methyl)phenyl)-N-methylmethanesulfonamide], for which, in experiment [1], the inhibition at 0.5 µM is 53 to 60% and the inhibition at 2 µM was 60 to 80%.

`Nc1ncnc2c1c(-c1ccc(Oc3ccccc3)cc1)nn2C1CCN(Cc2ccc3c(c2)C(=S)N(C2CCC(=O)NC2=O)C3)CC1` (stereo not drawn) [GT-09441, 3-(6-((4-(4-amino-3-(4-phenoxyphenyl)-1H-pyrazolo[3,4-d]pyrimidin-1-yl)piperidin-1-yl)methyl)-1-thioxoisoindolin-2-yl)piperidine-2,6-dione]: in experiment [1], the inhibition at 0.5 µM was in the range of 40 to 53% and the inhibition at 2 µM is 80 to 100%.

In the case of `Cc1cc(-c2nc(C(=O)Nc3cc4oc(N5CCOCC5)nc4nc3N3CC[C@@H](O)C3)co2)ccn1` [emavusertib, Emavusertib, reference compound], in experiment [1], the inhibition at 0.5 µM was in the range of 0 to 10% and the inhibition at 2 µM was 0 to 10%.
